By viability is commonly meant a read-out of living cells in per cent, often relative to untreated cells.

Each structure is given as a SMILES string.

Data on 76 molecules can be found in paper PMC12040169 (PLOS Biology, 2025).

One data set in a line: in vitro. As to conditions: human, hela cells, % viability.
Consider `O=C1C2C(c3ccc(F)cc3)NC(c3ccc(F)cc3)C1C(c1ccc(F)cc1)NC2c1ccc(F)cc1` (stereo not shown) [CBK261288], for which the viability at 28.5 h, 10 µM came to 110%. The same measure, in the same setting: as for `CCOC(=O)Nc1ccc2c(c1)N(C(=O)CCN1CCOCC1)c1ccccc1CC2` [CBK261291C], the figure is 103%. On the same count and under the same terms, to `O=C(CCc1ccccc1)NNC(=O)C1CC1c1ccccc1` (stereo not shown) [CBK261292] belongs 114%; to `CCOc1ccc(NC(NC(=O)Nc2ccccc2)C(Cl)(Cl)Cl)cc1` (stereo not shown) [CBK261294], 99.8%.

As to `O=C(CCCCCN1C(=O)c2cccc3cccc(c23)C1=O)NO` [CBK261295], the viability at 28.5 h, 10 µM turned out to be 55.6%. The same measure, in the same setting: as for `COc1ccc(C(=O)Nc2ccccc2Nc2cc(-c3ccccc3)nn2-c2ccccc2)cc1` [CBK261296], the figure is 88.4%; as for `O=C(Nc1ccccc1Nc1cc(-c2ccccc2)nn1-c1ccccc1)c1ccc(Br)cc1` [CBK261297], 84.7%. As for `Cc1ncc([N+](=O)[O-])n1CCOC(=O)NC(N1CCOCC1)C(Cl)(Cl)Cl` (stereo not shown) [CBK261299], the viability at 28.5 h, 10 µM came out at 103%. Same read-out and setting: to `COc1cc(OC)cc(C(=O)Nc2ccc(S(=O)(=O)Nc3nccs3)cc2)c1` [CBK261300] belongs 103%. Still for that read-out and setting: as for `COc1cc(/C=C2\SC(=S)N(CC(=O)NNC(=O)c3ccccc3O)C2=O)ccc1O` [CBK261301], the figure is 94%; as for `O=C1NC2(CCCCC2)C(=O)N1CCS(=O)(=O)Oc1ccc(Br)cc1` [CBK261303], 93.5%.

With `O=C(O)CC/C(=N\NC(=O)c1cccnc1)c1ccccc1` [CBK261305], the viability at 28.5 h, 10 µM was determined as 97.2%. For the molecule `Cc1ccc(S(=O)(=O)NC(CC(=O)O)c2ccccc2)cc1` (stereo not shown) [CBK261307], the viability at 28.5 h, 10 µM stood at 105%. Still for that read-out and setting: to `CCOC(=O)c1c(CN(C)C)n(-c2ccccc2)c2cc(Br)c(O)cc12` [CBK261309C] belongs 83.4%; to `COc1ccc(OC)c(C(O)c2coc3ccc(O)c(CN(C)C)c23)c1` (stereo not shown) [CBK261314], 114%; to `O=C(O)CCCNS(=O)(=O)c1ccc([N+](=O)[O-])cc1` [CBK261317], 93.1%.

As for `NS(=O)(=O)c1ccc(Nc2c(C(=O)O)cc([N+](=O)[O-])cc2[N+](=O)[O-])cc1` [CBK261319], the viability at 28.5 h, 10 µM stood at 93%.

Take `O=C(CN1C(=O)c2ccccc2C1=O)Nc1cccc2cccnc12` [CBK261320]: the viability at 28.5 h, 10 µM worked out at 91.2%.

In the case of `COC(=O)c1ccc(NC(=O)c2c(Br)c(Br)c(Br)c(Br)c2C(=O)O)cc1` [CBK261321], the viability at 28.5 h, 10 µM stood at 100%. For the molecule `O=C(O)CCCC(=O)Nc1ccccc1Br` [CBK261322], the viability at 28.5 h, 10 µM was found to be 102%.

As to `COc1ccccc1NC(=O)CCCC(=O)O` [CBK261323], the viability at 28.5 h, 10 µM was 101%. Same read-out and setting: to `C(=N\Nc1nc(-c2ccccc2)cs1)/c1ccccc1` [CBK261327] belongs 101%; to `O=C(O)c1cc(C(=O)O)cc(N2C(=O)c3ccc(-c4ccc5c(c4)C(=O)N(c4cc(C(=O)O)cc(C(=O)O)c4)C5=O)cc3C2=O)c1` [CBK261331], 96.6%.

On to `O=C(O)C1CC(C(=O)O)C(C(=O)O)CC1C(=O)O` (stereo not shown) [CBK261332], for which the viability at 28.5 h, 10 µM is 89.4%. On the same count and under the same terms, to `CC(=O)NCCC(CN1CCOCC1)([N+](=O)[O-])[N+](=O)[O-]` [CBK261338] belongs 88.7%; to `O=C(Nc1ccc(Sc2ccc([N+](=O)[O-])cc2)cc1)c1ccc2c(c1)C(=O)N(c1ccccc1-c1ccccc1)C2=O` [CBK261340], 77.1%. Still for that read-out and setting: to `CCC(=O)NC(Nc1cc(Cl)ccc1OC)(C(F)(F)F)C(F)(F)F` [CBK261342] belongs 96.3%; to `CCOC(=O)NC(Nc1cccc(C)n1)(C(F)(F)F)C(F)(F)F` [CBK261343], 115%; to `O=C(Nc1ccccc1)c1ccc(-c2ccccc2)cc1` [CBK261346], 107%. On the same count and under the same terms, to `Cc1ccc(NC(=O)c2ccc(-c3ccccc3)cc2)c(OC(=O)c2ccc(-c3ccccc3)cc2)c1` [CBK261347] belongs 98.9%; to `COc1cc(C2N(Cc3ccccc3)CCN2Cc2ccccc2)ccc1OC(C)=O` [CBK261349], 89.2%.

Turning to `NS(=O)(=O)c1ccc(NC(=O)CCC(=O)O)cc1` [CBK261350], the viability at 28.5 h, 10 µM was found to be 86.9%. On to `Cc1[nH]c2ccccc2c1/C=N/c1ccc(S(N)(=O)=O)cc1` [CBK261352], for which the viability at 28.5 h, 10 µM was 96%.

On to `O=C(N/N=C/c1ccc(Br)s1)c1cccc([N+](=O)[O-])c1` [CBK261354], for which the viability at 28.5 h, 10 µM is 117%. The same measure, in the same setting: as for `O=C(O)c1ccc(C(=O)O)c2c(C(=O)O)cccc12` [CBK261356], the figure is 82.3%; as for `C=CCNC1OC(CO)C(O)C(O)C1O` (stereo not shown) [CBK261357], 88.9%; as for `CC1(C)CC(CC(=O)NN)(c2ccccc2)CCO1` (stereo not shown) [CBK261358C], 86.6%.

Consider `CCOc1ccc(C2(C)C(=O)N(CN3CCOCC3)C(=O)N2CN2CCOCC2)cc1` (stereo not shown) [CBK261359], for which the viability at 28.5 h, 10 µM came out at 96%. Consider `CCOc1ccc(C(C)(CC(=O)O)C(=O)O)cc1` (stereo not shown) [CBK261361], for which the viability at 28.5 h, 10 µM was found to be 102%. The same measure, in the same setting: as for `Cc1noc(COc2ccc(OCc3nc(C)no3)cc2)n1` [CBK261364], the figure is 95.6%. Same read-out and setting: to `O=C(Nc1cccc(OC(=O)c2cccc(S(=O)(=O)N3CCOCC3)c2)c1)c1ccccc1` [CBK261365] belongs 85.5%; to `O=C(Nc1cccc([N+](=O)[O-])c1)c1cc(S(=O)(=O)N2CCCCC2)ccc1Cl` [CBK261367], 93.9%; to `Cc1ccc(C(=O)Nc2cccc(OC(=O)c3cc(S(=O)(=O)N4CCCCC4)ccc3Cl)c2)cc1` [CBK261368], 97.8%. As to `CC(=O)Nc1ccc(S(=O)(=O)c2cc(O)ccc2O)cc1` [CBK261372], the viability at 28.5 h, 10 µM turned out to be 85.9%. Same read-out and setting: to `COC(=O)c1ccc(CO)nc1` [CBK261376C] belongs 104%; to `O=C(CNC(=O)c1ccncc1)N/N=C/c1c(O)ccc2ccccc12` [CBK261378], 77%; to `Nc1cc(NC(=O)c2cccc(C(=O)Nc3ccc(Cl)c(N)c3)c2)ccc1Cl` [CBK261379], 94.1%. Same read-out and setting: as for `OCCNc1nc(Cl)nc(Nc2nc(-c3ccccc3)cs2)n1` [CBK261381], the figure is 86.2%.

On to `N#CCCN(C1CCCCC1)S(=O)(=O)c1ccc(-c2ccc([N+](=O)[O-])cc2)cc1` [CBK261382], for which the viability at 28.5 h, 10 µM turned out to be 90.6%. On the same count and under the same terms, to `NC(=O)OC(c1ccccc1[N+](=O)[O-])P(=O)(c1ccccc1)c1ccccc1` (stereo not shown) [CBK261383] belongs 88.3%; to `C(=N\c1ccc2c(c1)OCCOCCOc1cc(/N=C/c3ccccc3)ccc1OCCOCCO2)/c1ccccc1` [CBK261388], 100%.

Regarding `CC(=O)Nc1ccc(-c2nc3ccc(-c4ccc5nc(-c6ccc(NC(C)=O)cc6)oc(=O)c5c4)cc3c(=O)o2)cc1` [CBK261391], the viability at 28.5 h, 10 µM was determined as 107%. `O=C(O)c1cc(NC(=O)c2cccc(N3C(=O)c4ccc([N+](=O)[O-])cc4C3=O)c2)cc(C(=O)O)c1` [CBK261394]: the viability at 28.5 h, 10 µM came out at 90.5%. On the same count and under the same terms, as for `CC(C)(C)C(=O)Nc1ccc(-c2nc3ccc(Cc4ccc5nc(-c6ccc(NC(=O)C(C)(C)C)cc6)oc(=O)c5c4)cc3c(=O)o2)cc1` [CBK261396], the figure is 104%; as for `O=C1c2ccc(Oc3cccc(Oc4ccc5c(c4)C(=O)N(c4ccccn4)C5=O)c3)cc2C(=O)N1c1ccccn1` [CBK261397], 89.8%; as for `O=C1c2ccc(Oc3cccc(Oc4ccc5c(c4)C(=O)N(CCO)C5=O)c3)cc2C(=O)N1CCO` [CBK261398], 110%. The same measure, in the same setting: as for `CCCN1C(=S)N(CCO)C(=O)/C1=C/C=C1/Oc2ccccc2N1CCC(=O)O` [CBK261400], the figure is 88.6%; as for `CNC(=O)Nc1ccccc1NC(=O)NC` [CBK261401], 93%; as for `O=C(O)c1ccc(N2C(=O)CC(N3CCN(Cc4ccccc4)CC3)C2=O)cc1` (stereo not shown) [CBK261403], 94.7%. The same measure, in the same setting: to `COc1ccc(CCCNC(=N)N)cc1Cl` [CBK261404G] belongs 93.4%.

For the molecule `CC(C)NCC(O)COCc1ccc(Cl)cc1` (stereo not shown) [CBK261406C], the viability at 28.5 h, 10 µM turned out to be 108%. Same read-out and setting: to `Cc1ccc(C(=O)N/C(=C\c2cccc([N+](=O)[O-])c2)C(=O)NC2CCCCC2)cc1` [CBK261407] belongs 89.2%; to `N=C1NC(=O)/C(=C\c2ccc(-c3ccc(Br)cc3)o2)S1` [CBK261409], 69.9%. As for `O=C(O)c1ccc(S(=O)(=O)c2ccc(O)cc2)cc1` [CBK261411], the viability at 28.5 h, 10 µM turned out to be 95.2%. As to `Oc1ccc(/C=N/N(Cc2ccccc2)Cc2ccccc2)cc1` [CBK261414], the viability at 28.5 h, 10 µM was found to be 98.2%. As to `OC(Cn1nc(-c2ccccc2)cc1-c1ccccc1)Cn1c2ccc(Cl)cc2c2cc(Cl)ccc21` (stereo not shown) [CBK261418], the viability at 28.5 h, 10 µM worked out at 84.7%. On the same count and under the same terms, as for `Cc1cccc(NCC(O)Cn2c3ccc(Br)cc3c3cc(Br)ccc32)c1` (stereo not shown) [CBK261419], the figure is 94.5%; as for `OC(CNc1cccc2ccccc12)Cn1c2ccc(Br)cc2c2cc(Br)ccc21` (stereo not shown) [CBK261420], 99.8%; as for `Cc1nc([N+](=O)[O-])c(NCCO)n1Cc1ccccc1` [CBK261422], 88.5%. On the same count and under the same terms, as for `Cn1c(-c2ccc(-c3nc4cnccc4n3C)cc2)nc2cnccc21` [CBK261423], the figure is 106%. On the same count and under the same terms, as for `CC(NC(=O)COc1ccc(Cl)cc1Cl)C(=O)O` (stereo not shown) [CBK261425], the figure is 91.2%; as for `O=C(O)c1ccc(CN2CCOCC2)o1` [CBK261426C], 90.7%. `O=C(/C=C(O)/C(O)=C/C(=O)c1ccc(Cl)cc1)c1ccc(Cl)cc1` [CBK261428]: the viability at 28.5 h, 10 µM came to 102%. As for `CN(C(=O)CCC(=O)O)c1ccccc1C(=O)O` [CBK261429], the viability at 28.5 h, 10 µM amounted to 104%. Same read-out and setting: as for `O=C(N/N=C/C=N/NC(=O)c1ccccc1O)c1ccccc1O` [CBK261430], the figure is 98.2%.

The data set is the same for the next values; noted with them: human, hela cells, % viability, bulk resorufin, single well.
Regarding `Cc1cccc(OP(=O)(O)Oc2cccc(C)c2C)c1C` [CBK261316], the viability at 28.5 h, 10 µM was 91.7%.
